Test results published in patent publication US10787452B2 (Vertex Pharmaceuticals Incorporated, priority 2012, dated 2020).

Tested on: HCT116 colorectal cancer cells
Assay: Cisplatin sensitization assay (96 h cell viability MTS);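 further: compound concentration needed to lower the Cisplatin-alone IC50 by a set fold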
Type: cell-based
Conditions: 96 h MTS, compound plus Cisplatin
Procedure, shortened: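 Viability is measured with MTS reagent, added after 96 h and developed for 1 h at 37° C. Beforehand, cells receive compound and cisplatin simultaneously in a concentration matrix of 2-fold serial dilutions starting at 10 μM final.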

SMILES | Cisplatin Sensitization Assay
N#CCc1cnc2c(C(=O)Nc3cnccc3OC3CCCOC3)c(N)nn2c1 (stereo not drawn) [I-O-41, 2-amino-6-(cyanomethyl)-N-(4-((tetrahydro-2H-pyran-3-yl)oxy)pyridin-3-yl)pyrazolo[1,5-a]pyrimidine-3-carboxamide] | +++ (Compounds with a Cisplatin sensitization value of <0.02 μM are marked with “+++.”)
CC(C)N1CCN2CCN(c3ccncc3NC(=O)c3c(N)nn4cc(F)cnc34)CC2C1=O (stereo not drawn) [I-N-245, 2-amino-6-fluoro-N-(4-(8-isopropyl-9-oxohexahydro-1H-pyrazino[1,2-a]pyrazin-2(6H)-yl)pyridin-3-yl)pyrazolo[1,5-a]pyrimidine-3-carboxamide] | ++ (Compounds with a Cisplatin sensitization value >0.02 μM but <0.2 μM are marked with “++.”)
Nc1nn2cc(Cl)cnc2c1C(=O)Nc1cnccc1N1CCC(N2CC[C@@H](F)C2)CC1 [I-N-98, (R)-2-amino-6-chloro-N-(4-(4-(3-fluoropyrrolidin-1-yl)piperidin-1-yl)pyridin-3-yl)pyrazolo[1,5-a]pyrimidine-3-carboxamide] | +++ (Compounds with a Cisplatin sensitization value of <0.02 μM are marked with “+++.”)
CN1CCC(C(=O)N2CCC(c3ccncc3NC(=O)c3c(N)nn4cc(F)cnc34)CC2)CC1 [I-C-16, 2-amino-6-fluoro-N-(4-(1-(1-methylpiperidine-4-carbonyl)piperidin-4-yl)pyridin-3-yl)pyrazolo[1,5-a]pyrimidine-3-carboxamide] | + (Compounds with a Cisplatin sensitization value >0.2 μM but <5 μM are marked with “+.”)
Nc1nn2cc(Cl)cnc2c1C(=O)Nc1cnccc1OC1CCCOC1 (stereo not drawn) [I-O-65, 2-amino-6-chloro-N-(4-((tetrahydro-2H-pyran-3-yl)oxy)pyridin-3-yl)pyrazolo[1,5-a]pyrimidine-3-carboxamide] | +++ (Compounds with a Cisplatin sensitization value of <0.02 μM are marked with “+++.”)
CN(C)C1CCN(C2CCN(c3ccncc3NC(=O)c3c(N)nn4cc(Cl)cnc34)CC2)C1 (stereo not drawn) [I-N-106, 2-amino-6-chloro-N-(4-(4-(3-(dimethylamino)pyrrolidin-1-yl)piperidin-1-yl)pyridin-3-yl)pyrazolo[1,5-a]pyrimidine-3-carboxamide] | +++ (Compounds with a Cisplatin sensitization value of <0.02 μM are marked with “+++.”)
COC1(CN(C)C)CCN(c2ccncc2NC(=O)c2c(N)nn3cc(Cl)cnc23)CC1 [I-N-46, 2-amino-6-chloro-N-(4-(4-((dimethylamino)methyl)-4-methoxypiperidin-1-yl)pyridin-3-yl)pyrazolo[1,5-a]pyrimidine-3-carboxamide] | +++ (Compounds with a Cisplatin sensitization value of <0.02 μM are marked with “+++.”)
CN1CCN(C(=O)C2CCN(c3c(Cl)cncc3NC(=O)c3c(N)nn4cc(F)cnc34)CC2)CC1 [I-G-3, 2-amino-N-(5-chloro-4-(4-(4-methylpiperazine-1-carbonyl)piperidin-1-yl)pyridin-3-yl)-6-fluoropyrazolo[1,5-a]pyrimidine-3-carboxamide] | +++ (Compounds with a Cisplatin sensitization value of <0.02 μM are marked with “+++.”)
CCN1CCN(C(=O)C2CCN(c3c(F)cncc3NC(=O)c3c(N)nn4cc(F)cnc34)CC2)CC1 [I-G-9, 2-amino-N-(4-(4-(4-ethylpiperazine-1-carbonyl)piperidin-1-yl)-5-fluoropyridin-3-yl)-6-fluoropyrazolo[1,5-a]pyrimidine-3-carboxamide] | +++ (Compounds with a Cisplatin sensitization value of <0.02 μM are marked with “+++.”)
COC1CCN(c2ccncc2NC(=O)c2c(N)nn3cc(Cl)cnc23)CC1 [I-N-73, 2-amino-6-chloro-N-(4-(4-methoxypiperidin-1-yl)pyridin-3-yl)pyrazolo[1,5-a]pyrimidine-3-carboxamide] | +++ (Compounds with a Cisplatin sensitization value of <0.02 μM are marked with “+++.”)
Cc1cnccc1-c1ccncc1NC(=O)c1c(N)nn2cc(F)cnc12 [I-C-29, 2-amino-6-fluoro-N-(3′-methyl-[4,4′-bipyridin]-3-yl)pyrazolo[1,5-a]pyrimidine-3-carboxamide] | +++ (Compounds with a Cisplatin sensitization value of <0.02 μM are marked with “+++.”)
CC1(N2CCN(c3ccncc3NC(=O)c3c(N)nn4cc(F)cnc34)CC2)COC1 [I-N-62, 2-amino-6-fluoro-N-(4-(4-(3-methyloxetan-3-yl)piperazin-1-yl)pyridin-3-yl)pyrazolo[1,5-a]pyrimidine-3-carboxamide] | ++ (Compounds with a Cisplatin sensitization value >0.02 μM but <0.2 μM are marked with “++.”)
N#CCc1cnc2c(C(=O)Nc3cnccc3OCCN)c(N)nn2c1 [I-O-83, 2-amino-N-(4-(2-aminoethoxy)pyridin-3-yl)-6-(cyanomethyl)pyrazolo[1,5-a]pyrimidine-3-carboxamide] | +++ (Compounds with a Cisplatin sensitization value of <0.02 μM are marked with “+++.”)
Cc1cncc(NC(=O)c2c(N)nn3cc(Cl)cnc23)c1N1CCN(C)CC1 [I-N-57, 2-amino-6-chloro-N-(5-methyl-4-(4-methylpiperazin-1-yl)pyridin-3-yl)pyrazolo[1,5-a]pyrimidine-3-carboxamide] | +++ (Compounds with a Cisplatin sensitization value of <0.02 μM are marked with “+++.”)
Nc1nn2cc(F)cnc2c1C(=O)Nc1cncc(F)c1N1CCN(C2CCOC2)CC1 (stereo not drawn) [I-N-122, 2-amino-6-fluoro-N-(5-fluoro-4-(4-(tetrahydrofuran-3-yl)piperazin-1-yl)pyridin-3-yl)pyrazolo[1,5-a]pyrimidine-3-carboxamide] | ++ (Compounds with a Cisplatin sensitization value >0.02 μM but <0.2 μM are marked with “++.”)
CO[C@H]1CCN(C(=O)C2CCN(c3c(F)cncc3NC(=O)c3c(N)nn4cc(F)cnc34)CC2)C1 [I-G-99, (S)-2-amino-6-fluoro-N-(5-fluoro-4-(4-(3-methoxypyrrolidine-1-carbonyl)piperidin-1-yl)pyridin-3-yl)pyrazolo[1,5-a]pyrimidine-3-carboxamide] | +++ (Compounds with a Cisplatin sensitization value of <0.02 μM are marked with “+++.”)
CN1CC2(CCC1=O)CCN(c1ccncc1NC(=O)c1c(N)nn3cc(F)cnc13)CC2 [I-N-231, 2-amino-6-fluoro-N-(4-(2-methyl-3-oxo-2,9-diazaspiro[5.5]undecan-9-yl)pyridin-3-yl)pyrazolo[1,5-a]pyrimidine-3-carboxamide] | +++ (Compounds with a Cisplatin sensitization value of <0.02 μM are marked with “+++.”)
CC1CN(c2ccncc2NC(=O)c2c(N)nn3cc(Cl)cnc23)CCN1C (stereo not drawn) [I-N-54, 2-amino-6-chloro-N-(4-(3,4-dimethylpiperazin-1-yl)pyridin-3-yl)pyrazolo[1,5-a]pyrimidine-3-carboxamide] | +++ (Compounds with a Cisplatin sensitization value of <0.02 μM are marked with “+++.”)
COc1ccncc1NC(=O)c1c(N)nn2cc(CC#N)cnc12 [I-O-26, 2-amino-6-(cyanomethyl)-N-(4-methoxypyridin-3-yl)pyrazolo[1,5-a]pyrimidine-3-carboxamide] | ++ (Compounds with a Cisplatin sensitization value >0.02 μM but <0.2 μM are marked with “++.”)
Nc1nn2cc(F)cnc2c1C(=O)Nc1cnccc1N1CC(=O)N2CCCC2C1 (stereo not drawn) [I-N-222, 2-amino-6-fluoro-N-(4-(4-oxohexahydropyrrolo[1,2-a]pyrazin-2(1H)-yl)pyridin-3-yl)pyrazolo[1,5-a]pyrimidine-3-carboxamide] | ++ (Compounds with a Cisplatin sensitization value >0.02 μM but <0.2 μM are marked with “++.”)
Nc1nn2cc(Cl)cnc2c1C(=O)Nc1cnccc1OCC(F)(F)F [I-O-59, 2-amino-6-chloro-N-(4-(2,2,2-trifluoroethoxy)pyridin-3-yl)pyrazolo[1,5-a]pyrimidine-3-carboxamide] | +++ (Compounds with a Cisplatin sensitization value of <0.02 μM are marked with “+++.”)
Nc1nn2cc(F)cnc2c1C(=O)Nc1cnccc1-c1cccnc1F [I-C-35, 2-amino-6-fluoro-N-(2-fluoro-[3,4′-bipyridin]-3′-yl)pyrazolo[1,5-a]pyrimidine-3-carboxamide] | +++ (Compounds with a Cisplatin sensitization value of <0.02 μM are marked with “+++.”)
Nc1nn2cc(F)cnc2c1C(=O)Nc1cnccc1N1CCC(C(=O)N2CCC3(COC3)C2)CC1 [I-G-84, N-(4-(4-(2-oxa-6-azaspiro[3.4]octane-6-carbonyl)piperidin-1-yl)pyridin-3-yl)-2-amino-6-fluoropyrazolo[1,5-a]pyrimidine-3-carboxamide] | +++ (Compounds with a Cisplatin sensitization value of <0.02 μM are marked with “+++.”)
Nc1nn2cc(Cl)cnc2c1C(=O)Nc1cnccc1N1CCN(C2CC2)CC1 [I-N-64, 2-amino-6-chloro-N-(4-(4-cyclopropylpiperazin-1-yl)pyridin-3-yl)pyrazolo[1,5-a]pyrimidine-3-carboxamide] | +++ (Compounds with a Cisplatin sensitization value of <0.02 μM are marked with “+++.”)
Nc1nn2cc(F)cnc2c1C(=O)Nc1cncc(F)c1N1CCC(C(=O)N2CCN(C3CCC3)CC2)CC1 [I-G-35, 2-amino-N-(4-(4-(4-cyclobutylpiperazine-1-carbonyl)piperidin-1-yl)-5-fluoropyridin-3-yl)-6-fluoropyrazolo[1,5-a]pyrimidine-3-carboxamide] | +++ (Compounds with a Cisplatin sensitization value of <0.02 μM are marked with “+++.”)
COc1cncc(NC(=O)c2c(N)nn3cc(F)cnc23)c1-c1cncn1C [I-C-81, 2-amino-6-fluoro-N-(5-methoxy-4-(1-methyl-1H-imidazol-5-yl)pyridin-3-yl)pyrazolo[1,5-a]pyrimidine-3-carboxamide] | +++ (Compounds with a Cisplatin sensitization value of <0.02 μM are marked with “+++.”)
CN1CCC[C@@H]1C(=O)N1CCN(c2ccncc2NC(=O)c2c(N)nn3cc(F)cnc23)CC1 [I-N-199, (R)-2-amino-6-fluoro-N-(4-(4-(1-methylpyrrolidine-2-carbonyl)piperazin-1-yl)pyridin-3-yl)pyrazolo[1,5-a]pyrimidine-3-carboxamide] | +++ (Compounds with a Cisplatin sensitization value of <0.02 μM are marked with “+++.”)
